Laboratory results taken from PMC4764904 (Scientific Reports, 2016).
Marks after values point to notes of the source that are not given here. Where a SMILES comes first, the peptide text is derived from it. [ ]: non-standard residue; d: D form. The star is where a group is joined. Fmoc = O=C(OCC1c2ccccc2-c2ccccc21)*

What was measured:
[1] = Peptide stability in FBS by residual IP3 production; type: in vitro ADME, bovine; conditions: for Half-life activity (h) in FBS: peptide 1 μM in 100% FBS, 37 °C, 0, 3, 6, 12, 24, 48, 72 h, residual activity read as IP3 production ([3H]-inositol) in HEK293 cells expressing GALR2, mean ± S.E., at least three independent experiments
Protocol: (§1) To investigate the effects of the modifications on proteolytic susceptibility, the functional activity of peptides that were incubated in 100% serum at 37 °C for 0, 3, 6, 12, 24, 48, and 72 h was determined via inositol 1,4,5-triphosphate (IP3) production in GALR2-expressing cells (Fig. 4A–C and Table 3). […] In addition, dAla4 and dGln14 substitutions contribute to longer longevity of the peptide in serum. In an additional experiment, we examined the degradation rates of the Qu mutant, as well as the Qu mutant with an N-terminal modification and/or dAla4 and dGln14 substitutions.
(§2) Figure 4 Stability of SPX mutants in the presence of FBS (A) Qu analogs in FBS (B) and human serum (C). Potency of Qu mutants toward GALR2 (D) and GALR3 (E). For stability of SPX mutants, peptides (1 μM) were incubated in serum for 0, 3, 6, 12, 24, 48, and 72 hrs. The remaining activities of the peptides were determined by measuring IP3 production by HEK293 cells that express GALR2 after the indicated times. IP3 production was expressed as percent change, where 100% indicates IP3 production by WT SPX incubated in FBS or human serum for 0 h. For potency of Qu mutants toward GALR2 and GALR3, the SRE-luc reporter vector and plasmid containing human GALR2 or GALR3 were transfected into HEK293 cells that stably expressed Gqi protein. Cells were then treated with increasing concentrations of mutant peptides, and the receptor activities were determined using the SRE-luc reporter system.
(§3) To evaluate the stability of SPX and its analogs in FBS or human serum, peptides were incubated at an initial concentration of 1 μM in 100% serum at 37 °C for 0, 3, 6, 12, 24, 48, and 72 hours. Residual peptide activity was then assessed by measuring IP3 in HEK293 cells expressing GALR2. For the IP3 assay, cells were seeded in 12-well plates at a density of 2.5 × 10^5 cells per well, and then the next day, cells were transiently transfected with 1 μg/well of plasmid containing GALR2 using the Lipofectamine 2000 (Invitrogen) transfection reagent. The day following transfection, cells were incubated in M199 media containing 1% FBS, 1% L-glutamine, 1% penicillin/streptomycin, and 1 μCi/well of myo-^3H inositol for 20 h. After a 30-min incubation in buffer A (140 mM NaCl, 20 mM Hepes, 4 mM KCl, 8 mM D-glucose, 1 mM MgCl2, 1 mM CaCl2, 1 mg/ml free fatty acid bovine serum albumin (BSA), and 10 mM LiCl at pH 7.2), cells were treated with the agonist for 40 min at 37 °C. Media was removed, and the reactions were terminated by addition of 1 ml of 10 mM cold formic acid to each well. The plates were stored at 4 °C for 30 min, and the extracts were then transferred into 6-ml plastic tubes containing 500 μl AG1–8X anion exchange columns (BIO-RAD). The tubes were gently mixed with a vortexer, and the supernatants were removed by aspiration. Two washes with 1 ml of distilled water were performed followed by two additional washes with 60 mM ammonium formate/5mM sodium tetraborate. Tritiated inositol was separated from the column by elution with 1 ml of 1 M ammonium formate/0.1 M formic acid, and 800 μl from the elution were taken from each tube and transferred into 6-ml scintillation vials. Then, 2 ml of scintillation cocktail solution (Ultima Gold^TM, Perkin Elmer, Waltham MA, USA) was added to each sample. The radioactivity of [^3H]-myo-inositol samples was measured using a TRI carb 3100TR liquid scintillation analyzer (Packard).

[2] = Peptide stability in human serum by residual IP3 production; type: in vitro ADME; conditions: peptide 1 μM in 100% human serum, 37 °C, 0, 3, 6, 12, 24, 48, 72 h; residual activity read as IP3 production ([3H]-inositol) in HEK293 cells expressing GALR2; mean ± S.E., at least three independent experiments
Protocol: as §1, §2, §3

[3] = molecular target: T1, human GALR3 (Homo sapiens, UniProt O60755); assay: SRE-luc reporter assay, GALR3;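 note: luciferase activity read in cell lysates across rising peptide concentrations, EC50 being the agonist concentration giving half-maximal stimulation from a sigmoidal nonlinear fit, Gαqi routing Gi-coupled receptor signaling through Gq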; type: cell-based; conditions: HEK293-Gqi cells transfected with SRE-luc and human GALR3; 6 h ligand treatment; mean ± S.E. of at least three independent experiments; NM = not measurable; read-out: GALR3 EC50
T1 construct: host or cells: HEK293 cells stably expressing Gαqi
T1 sequence (O60755 1-368): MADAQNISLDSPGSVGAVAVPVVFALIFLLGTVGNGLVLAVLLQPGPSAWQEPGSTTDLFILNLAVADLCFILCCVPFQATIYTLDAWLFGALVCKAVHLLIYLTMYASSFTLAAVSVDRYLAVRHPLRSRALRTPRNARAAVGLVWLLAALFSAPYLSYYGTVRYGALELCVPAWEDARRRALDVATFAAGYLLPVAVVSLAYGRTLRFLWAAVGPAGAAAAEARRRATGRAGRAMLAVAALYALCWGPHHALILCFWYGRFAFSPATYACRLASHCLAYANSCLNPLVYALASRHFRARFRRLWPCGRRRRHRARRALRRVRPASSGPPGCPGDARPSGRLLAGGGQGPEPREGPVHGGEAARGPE
Protocol: (§4) The generated mutant SPX peptides were incubated with cells expressing GALR2 and GALR3. […] The activities of the receptors were traced using the serum-response element-driven luciferase (SRE-luc) assay system.
(§5) The SRE-luc reporter vector and plasmid containing human GALR1, GALR2, or GALR3 were transfected into HEK293 cells that stably expressed Gqi protein. Cells were then treated with increasing concentrations of mutant peptides, and the receptor activities were determined using the SRE-luc reporter system.
(§6) HEK293 cells stably expressing Gαqi, which mediates Gαi-coupled receptor activation by stimulating Gαq-dependent signaling pathways[59], were maintained in Dulbecco’s modified Eagle’s medium (DMEM) supplemented with 10% FBS, 100 U/ml penicillin G, and 100 μg/ml streptomycin (Invitrogen). Cells were seeded in 48-well plates at a density of 2 × 10^4 cells per well, one day before transfection. A mixture containing 75 ng of the SRE-luc reporter construct, 75 ng of expression plasmid, and 2 μl of Effectene reagent (Qiagen, Chatsworth, CA, USA) was prepared and added to each well according to the manufacturer’s instructions. Cells were then maintained in serum-free DMEM for 16–18 h before treatment with the ligands. Approximately 48 h after transfection, cells were treated with the respective ligands for 6 h. Cells were lysed by the addition of 100 μl lysis buffer. The luciferase activity in 50 μl of cell extract was determined by a luciferase assay system according to the standard protocol for the Synergy 2 Multi-Mode Microplate Reader (BioTek, Winooski, VT, USA).
(§7) For in vitro studies data analysis was performed by nonlinear regression with a sigmoidal dose-response. The agonist concentrations that induced half-maximal stimulation (EC50) or half-maximal inhibition of binding (IC50) were calculated with GraphPad PRISM4 software (GraphPad Software Inc., San Diego, CA, USA). […] All data are presented as mean ± S.E. of at least three independent experiments and a P value of P < 0.05 was considered statistically significant.

[4] = molecular target: T2, human GALR2 (Homo sapiens, UniProt O43603); assay: SRE-luc reporter assay, GALR2;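 note: luciferase activity read in cell lysates after exposure to rising peptide concentrations, EC50 being the agonist level giving half-maximal stimulation from a sigmoidal nonlinear regression fit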; type: cell-based; conditions: HEK293-Gqi cells transfected with SRE-luc and human GALR2; 6 h ligand treatment; mean ± S.E. of at least three independent experiments; NM = not measurable; read-out: GALR2 EC50
T2 construct: host or cells: HEK293 cells stably expressing Gαqi
T2 sequence (O43603 1-387): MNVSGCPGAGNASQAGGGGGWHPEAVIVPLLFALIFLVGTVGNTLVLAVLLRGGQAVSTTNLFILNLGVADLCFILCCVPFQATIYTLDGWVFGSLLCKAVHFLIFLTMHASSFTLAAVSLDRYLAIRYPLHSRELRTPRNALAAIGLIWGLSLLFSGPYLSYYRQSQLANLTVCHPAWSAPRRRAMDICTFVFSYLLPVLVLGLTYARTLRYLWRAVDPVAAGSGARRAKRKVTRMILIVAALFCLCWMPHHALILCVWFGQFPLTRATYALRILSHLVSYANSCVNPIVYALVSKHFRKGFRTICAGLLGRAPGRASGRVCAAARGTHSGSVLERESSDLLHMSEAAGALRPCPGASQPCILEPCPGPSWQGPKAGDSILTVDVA
Protocol: as §4, §5, §6, §7

Structure (SMILES)	Half-life activity (h) in FBS [1]	Half-life activity (h) in Human Serum [2]	EC50 [3]	EC50 [4]	Initial activity abolished after incubation in FBS ([1]; 12-h incubation in 100% FBS, 37 °C, peptide 1 μM, IP3 production in GALR2-expressing cells)
CC(C)C[C@H](NC(=O)[C@H](C)NC(=O)[C@H](C)NC(=O)[C@H](CC(N)=O)NC(=O)[C@@H]1CCCN1C(=O)[C@@H](NC(=O)[C@H](Cc1c[nH]c2ccccc12)NC(=O)[C@H](CC(N)=O)NC(=O)OCC1c2ccccc2-c2ccccc21)[C@@H](C)O)C(=O)N[C@@H](Cc1ccc(O)cc1)C(=O)N[C@@H](CC(C)C)C(=O)N[C@@H](Cc1ccccc1)C(=O)NCC(=O)N1CCC[C@H]1C(=O)N[C@H](CCC(N)=O)C(N)=O [Fmoc-Qu-dQ14] (Fmoc-NWTPNAALYLFGP[dQ]-NH2)	8.4 ± 0.3 ^a h	6.3 ± 0.1 ^a h			
CSCC[C@H](NC(=O)[C@H](C)NC(=O)[C@H](CCC(N)=O)NC(=O)[C@@H]1CCCN1C(=O)[C@@H](NC(=O)[C@@H](Cc1c[nH]c2ccccc12)NC(=O)[C@@H](N)CC(N)=O)[C@@H](C)O)C(=O)N[C@@H](CC(C)C)C(=O)N[C@@H](Cc1ccc(O)cc1)C(=O)N[C@@H](CC(C)C)C(=O)N[C@@H](CCCCN)C(=O)NCC(=O)N[C@@H](C)C(=O)N[C@@H](CCC(N)=O)C(N)=O [dW2]	4.5 ± 0.6 h		138 ± 23.2 nM	100 ± 18.7 nM	
CC(C)C[C@H](NC(=O)[C@H](C)NC(=O)[C@H](C)NC(=O)[C@H](CC(N)=O)NC(=O)[C@@H]1CCCN1C(=O)[C@@H](NC(=O)[C@H](Cc1c[nH]c2ccccc12)NC(=O)[C@H](CC(N)=O)NC(=O)OCC1c2ccccc2-c2ccccc21)[C@@H](C)O)C(=O)N[C@@H](Cc1ccc(O)cc1)C(=O)N[C@@H](CC(C)C)C(=O)N[C@@H](Cc1ccccc1)C(=O)NCC(=O)N1CCC[C@H]1C(=O)N[C@@H](CCC(N)=O)C(N)=O [Fmoc-Qu] (Fmoc-NWTPNAALYLFGPQ-NH2)	6.1 ± 0.2 ^a h	4.9 ± 0.1 ^a h			
CSCC[C@H](NC(=O)[C@H](C)NC(=O)[C@H](CCC(N)=O)NC(=O)[C@@H]1CCCN1C(=O)[C@@H](NC(=O)[C@H](Cc1c[nH]c2ccccc12)NC(=O)[C@@H](N)CC(N)=O)[C@@H](C)O)C(=O)N[C@@H](CC(C)C)C(=O)N[C@@H](Cc1ccc(O)cc1)C(=O)N[C@@H](CC(C)C)C(=O)N[C@@H](CCCCN)C(=O)NCC(=O)N[C@@H](C)C(=O)N[C@@H](CCC(N)=O)C(N)=O [WT, spexin, reference compound]	4.1 ± 0.5 h		112 ± 14.5 nM	45.7 ± 5.9 nM	80%
CSCC[C@H](NC(=O)[C@H](C)NC(=O)[C@H](CCC(N)=O)NC(=O)[C@@H](C)NC(=O)[C@@H](NC(=O)[C@H](Cc1c[nH]c2ccccc12)NC(=O)[C@@H](N)CC(N)=O)[C@@H](C)O)C(=O)N[C@@H](CC(C)C)C(=O)N[C@@H](Cc1ccc(O)cc1)C(=O)N[C@@H](CC(C)C)C(=O)N[C@@H](CCCCN)C(=O)NCC(=O)N[C@@H](C)C(=O)N[C@@H](CCC(N)=O)C(N)=O [dA4] (H-NWT[dA]QAMLYLKGAQ-NH2)	8.7 ± 0.4 ^a h		112 ± 23.1 nM	97.7 ± 18.3 nM	
CSCC[C@H](NC(=O)[C@H](C)NC(=O)[C@H](CCC(N)=O)NC(=O)[C@@H]1CCCN1C(=O)[C@@H](NC(=O)[C@H](Cc1c[nH]c2ccccc12)NC(=O)[C@@H](N)CC(N)=O)[C@@H](C)O)C(=O)N[C@@H](CC(C)C)C(=O)N[C@@H](Cc1ccc(O)cc1)C(=O)N[C@@H](CC(C)C)C(=O)N[C@@H](CCCCN)C(=O)NCC(=O)N[C@@H](C)C(=O)N[C@H](CCC(N)=O)C(N)=O [dQa14]	5.6 ± 0.2 ^a h		324 ± 66.6 nM	77.6 ± 16 nM	
CC(C)C[C@H](NC(=O)[C@H](C)NC(=O)[C@H](C)NC(=O)[C@H](CC(N)=O)NC(=O)[C@@H](C)NC(=O)[C@@H](NC(=O)[C@H](Cc1c[nH]c2ccccc12)NC(=O)[C@H](CC(N)=O)NC(=O)OCC1c2ccccc2-c2ccccc21)[C@@H](C)O)C(=O)N[C@@H](Cc1ccc(O)cc1)C(=O)N[C@@H](CC(C)C)C(=O)N[C@@H](Cc1ccccc1)C(=O)NCC(=O)N1CCC[C@H]1C(=O)N[C@H](CCC(N)=O)C(N)=O [Fmoc-Qu-dA4-dQ14] (Fmoc-NWT[dA]NAALYLFGP[dQ]-NH2)	11.8 ± 0.2 ^a h	8.8 ± 0.2 ^a h			
CSCC[C@H](NC(=O)[C@H](C)NC(=O)[C@H](CCC(N)=O)NC(=O)[C@@H]1CCCN1C(=O)[C@@H](NC(=O)[C@H](Cc1c[nH]c2ccccc12)NC(=O)[C@H](CC(N)=O)NC(=O)OCC1c2ccccc2-c2ccccc21)[C@@H](C)O)C(=O)N[C@@H](CC(C)C)C(=O)N[C@@H](Cc1ccc(O)cc1)C(=O)N[C@@H](CC(C)C)C(=O)N[C@@H](CCCCN)C(=O)NCC(=O)N[C@@H](C)C(=O)N[C@@H](CCC(N)=O)C(N)=O [Fmoc]	14.2 ± 0.2 ^a h		126 ± 25.9 nM	77.6 ± 16 nM	
CSCC[C@H](NC(=O)[C@H](C)NC(=O)[C@H](CCC(N)=O)NC(=O)[C@@H]1CCCN1C(=O)[C@@H](NC(=O)[C@H](Cc1c[nH]c2ccccc12)NC(=O)[C@H](N)CC(N)=O)[C@@H](C)O)C(=O)N[C@@H](CC(C)C)C(=O)N[C@@H](Cc1ccc(O)cc1)C(=O)N[C@@H](CC(C)C)C(=O)N[C@@H](CCCCN)C(=O)NCC(=O)N[C@@H](C)C(=O)N[C@@H](CCC(N)=O)C(N)=O [dN1]	10.3 ± 0.3 ^a h		38.9 ± 8 nM	21.4 ± 5.54 nM	
CSCC[C@H](NC(=O)[C@H](C)NC(=O)[C@H](CCC(N)=O)NC(=O)[C@@H]1CCCN1C(=O)[C@@H](NC(=O)[C@H](Cc1c[nH]c2ccccc12)NC(=O)[C@H](CC(N)=O)NC(C)=O)[C@@H](C)O)C(=O)N[C@@H](CC(C)C)C(=O)N[C@@H](Cc1ccc(O)cc1)C(=O)N[C@@H](CC(C)C)C(=O)N[C@@H](CCCCN)C(=O)NCC(=O)N[C@@H](C)C(=O)N[C@@H](CCC(N)=O)C(N)=O [Ac-N1]	8.7 ± 0.6 ^a h		81.3 ± 16.7 nM	58.9 ± 11 nM	
